From PubChem BioAssay (NCI)
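Results reflect a 48-hour exposure of cells in 96-well plates to compound at five concentrations. The concentration for 50% growth inhibition is given as GI50. TGI denotes the concentration required for complete inhibition of growth.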

Assays:
Assay in all cases: NCI-60 cell line screen, 48 h
[1] = tested on: 786-0 renal
[2] = tested on: A498 renal
[3] = tested on: A549 NSCLC
[4] = tested on: ACHN renal
[5] = tested on: BT-549 breast
[6] = tested on: CAKI-1 renal
[7] = tested on: CCRF-CEM leukemia
[8] = tested on: COLO 205 colon
[9] = tested on: DU-145 prostate
[10] = tested on: EKVX NSCLC
[11] = tested on: HCC-2998 colon
[12] = tested on: HCT-116 colon
[13] = tested on: HCT-15 colon
[14] = tested on: HL-60(TB) leukemia
[15] = tested on: HOP-62 NSCLC
[16] = tested on: HOP-92 NSCLC
[17] = tested on: HS 578T breast
[18] = tested on: HT29 colon
[19] = tested on: IGROV1 ovarian
[20] = tested on: K-562 leukemia
[21] = tested on: KM12 colon
[22] = tested on: LOX IMVI melanoma
[23] = tested on: M14 melanoma
[24] = tested on: MALME-3M melanoma
[25] = tested on: MCF7 breast
[26] = tested on: MDA-MB-231 breast
[27] = tested on: MDA-MB-435
[28] = tested on: MDA-MB-468 breast
[29] = tested on: MOLT-4 leukemia
[30] = tested on: NCI-H226 lung
[31] = tested on: NCI-H23 lung
[32] = tested on: NCI-H460 lung
[33] = tested on: NCI-H522 lung
[34] = tested on: NCI/ADR-RES ovarian
[35] = tested on: OVCAR-3 ovarian
[36] = tested on: OVCAR-4 ovarian
[37] = tested on: OVCAR-5 ovarian
[38] = tested on: OVCAR-8 ovarian
[39] = tested on: PC-3 prostate
[40] = tested on: RPMI-8226 leukemia
[41] = tested on: RXF 393 renal
[42] = tested on: SF-268 CNS
[43] = tested on: SF-295 CNS
[44] = tested on: SF-539 CNS
[45] = tested on: SK-MEL-2 melanoma
[46] = tested on: SK-MEL-28 melanoma
[47] = tested on: SK-MEL-5 melanoma
[48] = tested on: SK-OV-3 ovarian
[49] = tested on: SN12C renal
[50] = tested on: SNB-19 CNS
[51] = tested on: SNB-75 CNS
[52] = tested on: SW-620 colon
[53] = tested on: T-47D breast
[54] = tested on: TK-10 renal
[55] = tested on: U251 CNS
[56] = tested on: UACC-257 melanoma
[57] = tested on: UACC-62 melanoma
[58] = tested on: UO-31 renal

Work on `Cn1cc(-c2cc(N)n3nc(-c4cn(C)c5ncccc45)cc3n2)c2cccnc21` yielded a GI50 [1] of 16.7 µM, a TGI [1] of 32.2 µM and a GI50 [2] greater than 100 µM. The TGI [2] was greater than 100 µM, the GI50 [3] was 15.7 µM and the TGI [3] was 42 µM. It also gave a GI50 [4] of 17.3 µM, a TGI [4] of 33 µM and a GI50 [5] of 17.4 µM. The TGI [5] was 39.1 µM, the GI50 [6] was 16.9 µM and the TGI [6] was 35.6 µM. For the same molecule, the GI50 [7] was 5.88 µM, the TGI [7] was 94.5 µM and the GI50 [8] was 10.3 µM. The TGI [8] was 23.9 µM, the GI50 [9] was 14.6 µM and the TGI [9] was 28.5 µM. The GI50 [10] was 15.2 µM, the TGI [10] was 30.2 µM and the GI50 [11] was 15.1 µM. It also gave a TGI [11] of 28.3 µM, a GI50 [12] of 16.8 µM and a TGI [12] of 38.2 µM. For the same molecule, the GI50 [13] was 16.4 µM, the TGI [13] was 31.2 µM and the GI50 [14] was 14.8 µM. The TGI [14] was 37 µM, the GI50 [15] was 18 µM and the TGI [15] was 36.4 µM. It also gave a GI50 [16] of 11.1 µM, a TGI [16] of 29.1 µM and a GI50 [17] of 18.7 µM. For the same molecule, the TGI [17] was 73.4 µM, the GI50 [18] was 14.9 µM and the TGI [18] was 31.5 µM. It also gave a GI50 [19] of 17.8 µM, a TGI [19] of 37.6 µM and a GI50 [20] of 6.6 µM. For the same molecule, the TGI [20] was 27 µM, the GI50 [21] was 16.6 µM and the TGI [21] was 32.3 µM. It also gave a GI50 [22] of 18.2 µM, a TGI [22] of 39.7 µM and a GI50 [23] of 16 µM. It also gave a TGI [23] of 30.9 µM, a GI50 [24] of 17.3 µM and a TGI [24] of 36.4 µM. The GI50 [25] was 18.7 µM, the TGI [25] was 41.6 µM and the GI50 [26] was 13.7 µM. For the same molecule, the TGI [26] was 26.5 µM, the GI50 [27] was 29.4 µM and the TGI [27] was greater than 100 µM. For the same molecule, the GI50 [28] was 13.7 µM, the TGI [28] was 26.7 µM and the GI50 [29] was 17.7 µM. It also gave a TGI [29] of 51.6 µM, a GI50 [30] of 17.8 µM and a TGI [30] of 42.9 µM. For the same molecule, the GI50 [31] was 17.4 µM, the TGI [31] was 32 µM and the GI50 [32] was 15.9 µM. The TGI [32] was 32.6 µM, the GI50 [33] was 32.1 µM and the TGI [33] was greater than 100 µM. It also gave a GI50 [34] of 30.9 µM, a TGI [34] greater than 100 µM and a GI50 [35] of 15.6 µM. The TGI [35] was 30.9 µM, the GI50 [36] was 17.2 µM and the TGI [36] was 36.2 µM. The GI50 [37] was 15.1 µM, the TGI [37] was 28.4 µM and the GI50 [38] was 18.7 µM. The TGI [38] was 46 µM, the GI50 [39] was 15.2 µM and the TGI [39] was 34.9 µM. The GI50 [40] was 12.9 µM, the TGI [40] was 38.4 µM and the GI50 [41] was 5.11 µM. It also gave a TGI [41] of 21.9 µM, a GI50 [42] greater than 100 µM and a TGI [42] greater than 100 µM. For the same molecule, the GI50 [43] was 17.5 µM, the TGI [43] was 38.8 µM and the GI50 [44] was 16.4 µM. The TGI [44] was 32.1 µM, the GI50 [45] was greater than 100 µM and the TGI [45] was greater than 100 µM. The GI50 [46] was 16.4 µM, the TGI [46] was 31.6 µM and the GI50 [47] was 14.4 µM. It also gave a TGI [47] of 28.2 µM, a GI50 [48] greater than 100 µM and a TGI [48] greater than 100 µM. For the same molecule, the GI50 [49] was 15.2 µM, the TGI [49] was 30.4 µM and the GI50 [50] was 18.6 µM. The TGI [50] was 38.4 µM, the GI50 [51] was 11.1 µM and the TGI [51] was 30.6 µM. It also gave a GI50 [52] of 13.3 µM, a TGI [52] of 29.7 µM and a GI50 [53] of 42.7 µM. The TGI [53] was greater than 100 µM, the GI50 [54] was 14.3 µM and the TGI [54] was 27.9 µM. The GI50 [55] was 19.8 µM, the TGI [55] was 46.4 µM and the GI50 [56] was 29.2 µM. The TGI [56] was greater than 100 µM, the GI50 [57] was 29 µM and the TGI [57] was greater than 100 µM. It also gave a GI50 [58] of 15.2 µM and a TGI [58] of 32.1 µM.
